Assay results from ChEMBL document CHEMBL5532696, “Discovery of new tricyclic spiroindole derivatives as potent P-glycoprotein inhibitors for reversing multidrug resistance enabled by a synthetic methodology-based library” (RSC Med Chem, 2024).
Active and inactive are the calls of the source. The rule behind the calls is not given here.

Tests used:
[1] = Reversal of vincristine resistant in human Eca-109/VCR cells assessed as reversal fold by measuring ratio of doxorubicin IC50 to doxorubicin IC50 in presence of test compound at 5 uM incubated for 48 hrs by CCK8 assay; type: functional
Eca-109/VCR [2] = assay: Induction of apoptosis in human Eca-109/VCR cells assessed as viable cells at 5 uM incubated for 48 hrs in presence of vincristine at 50 nM by Annexin V-FITC/DAPI staining based flow cytometry analysis (reference value: 93.5 %); type: functional; details: read-out: Activity
Eca-109/VCR [3] = assay: Antiproliferative activity against human Eca-109/VCR cells assessed as cell viability at 5 uM incubated for 48 hrs by CCK-8 assay (reference value: 100 +/- 1.8%); type: functional; details: read-out: Activity
[4] = Reversal of vincristine resistant in human Eca-109/VCR cells assessed as reversal fold by measuring ratio of lapatinib IC50 to lapatinib IC50 in presence of test compound at 5 uM incubated for 48 hrs by CCK8 assay; type: functional
Eca-109/VCR [5] = assay: Inhibition of colony formation in human Eca-109/VCR cells assessed as reduction in number of colonies incubated for 48 hrs in presence of vincristine by crystal violet staining based assay; type: functional, cell-based; details: dose 0-2 µM
Eca-109/VCR [6] = assay: Induction of apoptosis in human Eca-109/VCR cells assessed as viable cells at 1 uM incubated for 48 hrs by Annexin V-FITC/DAPI staining based flow cytometry analysis (reference value: 94.6 %); type: functional; details: read-out: Activity
Eca-109/VCR [7] = assay: Reversal of vincristine resistance in human Eca-109/VCR cells assessed as effect on P-gp protein expression at 5 to 10 uM incubated for 24 hrs by Western blotting analysis; type: functional, cell-based; details: dose 5-10 µM
Eca-109/VCR [8] = assay: Induction of apoptosis in human Eca-109/VCR cells assessed as viable cells at 5 uM incubated for 48 hrs by Annexin V-FITC/DAPI staining based flow cytometry analysis (reference value: 94.6 %); type: functional; details: read-out: Activity
Eca-109/VCR [9] = assay: Effect on ABCG2 protein expression in human Eca-109/VCR cells at 5 to 10 uM incubated for 24 hrs by Western blotting analysis; type: functional, cell-based; details: dose 5-10 µM
Eca-109/VCR [10] = assay: Induction of apoptosis in human Eca-109/VCR cells assessed as early apoptotic cells at 5 uM incubated for 48 hrs in presence of vincristine at 50 nM by Annexin V-FITC/DAPI staining based flow cytometry analysis (reference value: 1.33 %); type: functional
Eca-109/VCR [11] = assay: Induction of apoptosis in human Eca-109/VCR cells assessed as necrotic cells at 1 uM incubated for 48 hrs by Annexin V-FITC/DAPI staining based flow cytometry analysis (reference value: 0.073 %); type: functional
Eca-109/VCR [12] = assay: Induction of apoptosis in human Eca-109/VCR cells assessed as necrotic cells at 5 uM incubated for 48 hrs by Annexin V-FITC/DAPI staining based flow cytometry analysis (reference value: 0.073 %); type: functional
Eca-109/VCR [13] = assay: Induction of apoptosis in human Eca-109/VCR cells assessed as viable cells at 1 uM incubated for 48 hrs in presence of vincristine at 50 nM by Annexin V-FITC/DAPI staining based flow cytometry analysis (reference value: 93.5 %); type: functional; details: read-out: Activity
Eca-109/VCR [14] = assay: Inhibition of colony formation in human Eca-109/VCR cells at 0 to 2 uM incubated for 48 hrs by crystal violet staining based assay; type: functional, cell-based; details: dose 0-2 µM
Eca-109/VCR [15] = assay: Induction of apoptosis in human Eca-109/VCR cells assessed as early apoptotic cells at 1 uM incubated for 48 hrs in presence of vincristine at 50 nM by Annexin V-FITC/DAPI staining based flow cytometry analysis (reference value: 1.33 %); type: functional
Eca-109/VCR [16] = assay: Induction of apoptosis in human Eca-109/VCR cells assessed as late apoptotic cells at 5 uM incubated for 48 hrs by Annexin V-FITC/DAPI staining based flow cytometry analysis (reference value: 4.31 %); type: functional
[17] = Reversal of vincristine resistant in human Eca-109/VCR cells assessed as reversal fold by measuring ratio of docetaxel IC50 to docetaxel IC50 in presence of test compound at 5 uM incubated for 48 hrs by CCK8 assay; type: functional
[18] = Reversal of vincristine resistant in human Eca-109/VCR cells assessed as reversal fold by measuring ratio of colchicine IC50 to colchicine IC50 in presence of test compound at 5 uM incubated for 48 hrs by CCK8 assay; type: functional
Eca-109/VCR [19] = assay: Induction of apoptosis in human Eca-109/VCR cells assessed as necrotic cells at 5 uM incubated for 48 hrs in presence of vincristine at 50 nM by Annexin V-FITC/DAPI staining based flow cytometry analysis (reference value: 0.062 %); type: functional
Eca-109/VCR [20] = assay: Effect on MRP1 protein expression in human Eca-109/VCR cells at 5 to 10 uM incubated for 24 hrs by Western blotting analysis; type: functional, cell-based; details: dose 5-10 µM
Eca-109/VCR [21] = assay: Induction of apoptosis in human Eca-109/VCR cells assessed as late apoptotic cells at 1 uM incubated for 48 hrs by Annexin V-FITC/DAPI staining based flow cytometry analysis (reference value: 4.31 %); type: functional
Eca-109/VCR [22] = assay: Antiproliferative activity against human Eca-109/VCR cells assessed as reduction in cell viability at 10 uM incubated for 48 hrs by CCK-8 assay; type: functional, cell-based
Eca-109/VCR [23] = assay: Induction of apoptosis in human Eca-109/VCR cells assessed as early apoptotic cells at 1 uM incubated for 48 hrs by Annexin V-FITC/DAPI staining based flow cytometry analysis (reference value: 0.97 %); type: functional
[24] = Reversal of vincristine resistant in human Eca-109/VCR cells assessed as reversal fold by measuring ratio of mitoxantrone IC50 to mitoxantrone IC50 in presence of test compound at 5 uM incubated for 48 hrs by CCK8 assay; type: functional
Eca-109/VCR [25] = assay: Induction of apoptosis in human Eca-109/VCR cells assessed as early apoptotic cells at 5 uM incubated for 48 hrs by Annexin V-FITC/DAPI staining based flow cytometry analysis (reference value: 0.97 %); type: functional
Eca-109/VCR [26] = assay: Induction of apoptosis in human Eca-109/VCR cells assessed as late apoptotic cells at 5 uM incubated for 48 hrs in presence of vincristine at 50 nM by Annexin V-FITC/DAPI staining based flow cytometry analysis (reference value: 5.06 %); type: functional
Eca-109/VCR [27] = assay: Reversal of vincristine resistance in human Eca-109/VCR cells assessed as reversal fold by measuring ratio of vincristine IC50 to vincristine IC50 in presence of test compound at 5 uM incubated for 48 hrs by CCK8 assay; type: functional
Eca-109/VCR [28] = assay: Induction of apoptosis in human Eca-109/VCR cells assessed as necrotic cells at 1 uM incubated for 48 hrs in presence of vincristine at 50 nM by Annexin V-FITC/DAPI staining based flow cytometry analysis (reference value: 0.062 %); type: functional
Eca-109/VCR [29] = assay: Induction of apoptosis in human Eca-109/VCR cells assessed as late apoptotic cells at 1 uM incubated for 48 hrs in presence of vincristine at 50 nM by Annexin V-FITC/DAPI staining based flow cytometry analysis (reference value: 5.06 %); type: functional

SMILES: CN1C(=O)[C@@]2(c3cc(Cl)ccc31)[C@H](C(=O)NC(C)(C)C)[C@H]1c3ccc([N+](=O)[O-])cc3C(=O)[C@H]1[C@@H]2c1ccccc1
- Ratio IC50 [1]: 121
- viability at 5 µM (Eca-109/VCR [2]): 77.5%
- viability at 5 µM (Eca-109/VCR [3]): 98.9%
- Ratio IC50 [4]: 1.4
- inhibition (Eca-109/VCR [5]): Dose-Dependent Effect
- viability at 1 µM (Eca-109/VCR [6]): 93.9%
- Activity (Eca-109/VCR [7]): inactive
- viability at 5 µM (Eca-109/VCR [8]): 94.6%
- Activity (Eca-109/VCR [9]): inactive
- Activity (Eca-109/VCR [10]): 17.9%
- Activity (Eca-109/VCR [11]): 0.082%
- Activity (Eca-109/VCR [12]): 0.064%
- viability at 1 µM (Eca-109/VCR [13]): 91.3%
- inhibition (Eca-109/VCR [14]): inactive
- Activity (Eca-109/VCR [15]): 0.99%
- Activity (Eca-109/VCR [16]): 4.19%
- Ratio IC50 [17]: 313.8
- Ratio IC50 [18]: 139.7
- Activity (Eca-109/VCR [19]): 0.31%
- Activity (Eca-109/VCR [20]): inactive
- Activity (Eca-109/VCR [21]): 4.73%
- Activity (Eca-109/VCR [22]): inactive
- Activity (Eca-109/VCR [23]): 1.27%
- Ratio IC50 [24]: 12
- Activity (Eca-109/VCR [25]): 1.19%
- Activity (Eca-109/VCR [26]): 4.28%
- Ratio IC50 (Eca-109/VCR [27]): 727.2
- Activity (Eca-109/VCR [28]): 0.15%
- Activity (Eca-109/VCR [29]): 7.54%
